Measured values reported in US20220281848A1, “PYRAZOLE-SUBSTITUTED PYRROLIDINONES AS HERBICIDES” (FMC Corporation, priority 2019, published 2022).

System: plants
Experiment: Test D pre-emergence, other plants of Tables D1 and D3
Type: in vivo
Conditions: pre-emergence, 100=total damage, 0=no damage
Method in brief: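 Damage was rated visually from 0 (none) to 100 (total), at 20 DAA for pre-emergence and 15 d for post-emergence. Plants grew from safener-treated seed in a glasshouse at 24/18° C. or 20/16° C. day/night, 65% humidity, watered twice daily.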

CN1CC(c2cc(C(F)(F)F)n(C)n2)C(C(=O)Nc2ccc(F)nc2F)C1=O (racemic) [Compound 22]
10: damage to plant, STEME (rate 60, 20 DAA) | damage to plant, CHEAL (rate 130, 20 DAA) | damage to plant, LOLPE (rate 130, 20 DAA) | damage to plant, STEME (rate 130, 20 DAA) | damage to plant, POLCO (rate 250, 20 DAA)
60: damage to plant, POAAN (rate 500, 20 DAA)
0: damage to plant, ALOMY (rate 15, 20 DAA) | damage to plant, AVEFA (rate 15, 20 DAA) | damage to plant, BEAVA (rate 15, 20 DAA) | damage to plant, BROTE (rate 15, 20 DAA) | damage to plant, BRSNN (rate 15, 20 DAA) | damage to plant, CHEAL (rate 15, 20 DAA) | damage to plant, GALAP (rate 15, 20 DAA) | damage to plant, HORVW (rate 15, 20 DAA) | damage to plant, KCHSC (rate 15, 20 DAA) | damage to plant, LOLPE (rate 15, 20 DAA) | damage to plant, POAAN (rate 15, 20 DAA) | damage to plant, POLCO (rate 15, 20 DAA) | damage to plant, SINAR (rate 15, 20 DAA) | damage to plant, STEME (rate 15, 20 DAA) | damage to plant, VERPE (rate 15, 20 DAA) | damage to plant, ALOMY (rate 30, 20 DAA) | damage to plant, AVEFA (rate 30, 20 DAA) | damage to plant, BEAVA (rate 30, 20 DAA) | damage to plant, BROTE (rate 30, 20 DAA) | damage to plant, BRSNN (rate 30, 20 DAA) | damage to plant, CHEAL (rate 30, 20 DAA) | damage to plant, GALAP (rate 30, 20 DAA) | damage to plant, HORVW (rate 30, 20 DAA) | damage to plant, KCHSC (rate 30, 20 DAA) | damage to plant, LOLPE (rate 30, 20 DAA) | damage to plant, POAAN (rate 30, 20 DAA) | damage to plant, POLCO (rate 30, 20 DAA) | damage to plant, SINAR (rate 30, 20 DAA) | damage to plant, STEME (rate 30, 20 DAA) | damage to plant, VERPE (rate 30, 20 DAA) | damage to plant, ALOMY (rate 60, 20 DAA) | damage to plant, AVEFA (rate 60, 20 DAA) | damage to plant, BEAVA (rate 60, 20 DAA) | damage to plant, BROTE (rate 60, 20 DAA) | damage to plant, BRSNN (rate 60, 20 DAA) | damage to plant, GALAP (rate 60, 20 DAA) | damage to plant, HORVW (rate 60, 20 DAA) | damage to plant, KCHSC (rate 60, 20 DAA) | damage to plant, LOLPE (rate 60, 20 DAA) | damage to plant, POAAN (rate 60, 20 DAA) | damage to plant, POLCO (rate 60, 20 DAA) | damage to plant, SINAR (rate 60, 20 DAA) | damage to plant, VERPE (rate 60, 20 DAA) | damage to plant, ALOMY (rate 130, 20 DAA) | damage to plant, AVEFA (rate 130, 20 DAA) | damage to plant, BEAVA (rate 130, 20 DAA) | damage to plant, BROTE (rate 130, 20 DAA) | damage to plant, BRSNN (rate 130, 20 DAA) | damage to plant, GALAP (rate 130, 20 DAA) | damage to plant, HORVW (rate 130, 20 DAA) | damage to plant, KCHSC (rate 130, 20 DAA) | damage to plant, POLCO (rate 130, 20 DAA) | damage to plant, SINAR (rate 130, 20 DAA) | damage to plant, ALOMY (rate 250, 20 DAA) | damage to plant, AVEFA (rate 250, 20 DAA) | damage to plant, BEAVA (rate 250, 20 DAA) | damage to plant, BROTE (rate 250, 20 DAA) | damage to plant, BRSNN (rate 250, 20 DAA) | damage to plant, GALAP (rate 250, 20 DAA) | damage to plant, HORVW (rate 250, 20 DAA) | damage to plant, KCHSC (rate 250, 20 DAA) | damage to plant, SINAR (rate 250, 20 DAA) | damage to plant, AVEFA (rate 500, 20 DAA) | damage to plant, BEAVA (rate 500, 20 DAA) | damage to plant, BROTE (rate 500, 20 DAA) | damage to plant, BRSNN (rate 500, 20 DAA) | damage to plant, GALAP (rate 500, 20 DAA) | damage to plant, HORVW (rate 500, 20 DAA) | damage to plant, KCHSC (rate 500, 20 DAA) | damage to plant, SINAR (rate 500, 20 DAA)
30: damage to plant, STEME (rate 250, 20 DAA) | damage to plant, VERPE (rate 250, 20 DAA) | damage to plant, LOLPE (rate 500, 20 DAA)
20: damage to plant, CHEAL (rate 60, 20 DAA) | damage to plant, POAAN (rate 130, 20 DAA) | damage to plant, VERPE (rate 130, 20 DAA) | damage to plant, LOLPE (rate 250, 20 DAA) | damage to plant, ALOMY (rate 500, 20 DAA) | damage to plant, POLCO (rate 500, 20 DAA)
40: damage to plant, POAAN (rate 250, 20 DAA) | damage to plant, CHEAL (rate 500, 20 DAA) | damage to plant, STEME (rate 500, 20 DAA)
80: damage to plant, CHEAL (rate 250, 20 DAA)
100: damage to plant, VERPE (rate 500, 20 DAA)
